#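 In this assay, cells in 96-well plates receive the compound at five concentrations for 48 hours. Endpoints are linearly interpolated between the surrounding concentrations. Abbreviation: GI50, concentration required for 50% inhibition of growth.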 Active and inactive are the calls of the source. Cut-off read from the data, not from the text of the source: active = GI50 up to about 1.1 µM and inactive = higher. Positions of bridges follow the written chain, without caps; N, C: chain ends. Residues, ends and D or L forms follow the SMILES beside them.
# Key:
# Assay in all cases: inhibition of tumour cell growth, NCI panel, 48 h
# ACHN = test system: ACHN
# RXF 393 = test system: RXF 393
# Malme-3M = test system: Malme-3M
# SK-OV-3 = test system: SK-OV-3
# Hs-578T = test system: Hs-578T
# NCI/ADR-RES = test system: NCI/ADR-RES
# SN12C = test system: SN12C
# SF-539 = test system: SF-539
# HOP-62 = test system: HOP-62
# SF-268 = test system: SF-268
# OVCAR-8 = test system: OVCAR-8
# A549 = test system: A549
# HT-29 = test system: HT-29
# HCT-116 = test system: HCT-116
# SK-MEL-5 = test system: SK-MEL-5
# UACC-62 = test system: UACC-62
# NCI-H23 = test system: NCI-H23
# KM12 = test system: KM12
# MDA-N = test system: MDA-N
# SK-MEL-2 = test system: SK-MEL-2
Compound,GI50 (ACHN),GI50 (RXF 393),GI50 (Malme-3M),GI50 (SK-OV-3),GI50 (Hs-578T),GI50 (NCI/ADR-RES),GI50 (SN12C),GI50 (SF-539),GI50 (HOP-62),GI50 (SF-268),GI50 (OVCAR-8),GI50 (A549),GI50 (HT-29),GI50 (HCT-116),GI50 (SK-MEL-5),GI50 (UACC-62),GI50 (NCI-H23),GI50 (KM12),GI50 (MDA-N),GI50 (SK-MEL-2)
CC(=O)OCC1=C(C(=O)O)N2C(=O)C(NC(=O)CSc3ccncc3)C2SC1 (stereo not given),> 100 µM (inactive),> 100 µM (inactive),> 100 µM (inactive),> 100 µM (inactive),> 100 µM (inactive),> 100 µM (inactive),> 100 µM (inactive),> 100 µM (inactive),> 100 µM (inactive),> 100 µM (inactive),> 100 µM (inactive),> 100 µM (inactive),> 100 µM (inactive),> 100 µM (inactive),> 100 µM (inactive),> 100 µM (inactive),> 100 µM (inactive),> 100 µM (inactive),> 100 µM (inactive),> 100 µM (inactive)
COC(=O)C1CCC(=O)NCCCCC(NC(=O)C(N)CC(=O)O)C(=O)N1 (stereo not drawn) (H-Asp-Lys-Glu-OMe; lactam 2-3; configuration not given here),41.2 µM (inactive),> 100 µM (inactive),> 100 µM (inactive),> 100 µM (inactive),> 100 µM (inactive),> 100 µM (inactive),> 100 µM (inactive),> 100 µM (inactive),> 100 µM (inactive),> 100 µM (inactive),> 100 µM (inactive),> 100 µM (inactive),> 100 µM (inactive),60 µM (inactive),> 100 µM (inactive),28.2 µM (inactive),92.5 µM (inactive),> 100 µM (inactive),> 100 µM (inactive),> 100 µM (inactive)
CN(C)c1ccc(/N=N/c2ccccn2)cc1,31.8 µM (inactive),> 100 µM (inactive),22.6 µM (inactive),38.7 µM (inactive),> 100 µM (inactive),5.04 µM (inactive),41.5 µM (inactive),52.2 µM (inactive),71 µM (inactive),51.2 µM (inactive),38.9 µM (inactive),19.8 µM (inactive),11.1 µM (inactive),6.67 µM (inactive),15.4 µM (inactive),33.4 µM (inactive),14.2 µM (inactive),43.1 µM (inactive),33.7 µM (inactive),55.1 µM (inactive)
COc1ccc(/C(CCl)=C(\Nc2ccccc2)c2ccc(OC)c(OC)c2)cc1OC,45.3 µM (inactive),36.1 µM (inactive),> 100 µM (inactive),> 100 µM (inactive),> 100 µM (inactive),> 100 µM (inactive),> 100 µM (inactive),> 100 µM (inactive),> 100 µM (inactive),> 100 µM (inactive),> 100 µM (inactive),85.7 µM (inactive),> 100 µM (inactive),27.6 µM (inactive),71.9 µM (inactive),> 100 µM (inactive),49.3 µM (inactive),> 100 µM (inactive),> 100 µM (inactive),> 100 µM (inactive)
CC(C)C(C/C=C1\CC(CO)(COC(=O)C(C)(C)C)OC1=O)C(C)C (stereo not given),11 µM (inactive),15.6 µM (inactive),10.7 µM (inactive),15.1 µM (inactive),2.5 µM (inactive),13.6 µM (inactive),5.69 µM (inactive),7.93 µM (inactive),3.11 µM (inactive),13.2 µM (inactive),14.8 µM (inactive),4.42 µM (inactive),19.3 µM (inactive),10.5 µM (inactive),3.72 µM (inactive),15.2 µM (inactive),4.9 µM (inactive),12.7 µM (inactive),4.97 µM (inactive),20.6 µM (inactive)
O=C1c2cc3c(cc2CC1Br)CCC3 (stereo not given),3.8 µM (inactive),1.83 µM (inactive),1.01 µM (active),7.73 µM (inactive),4.06 µM (inactive),4.14 µM (inactive),1.7 µM (inactive),2.03 µM (inactive),13.8 µM (inactive),4.41 µM (inactive),1.98 µM (inactive),18.2 µM (inactive),2.36 µM (inactive),1.53 µM (inactive),1.18 µM (inactive),3.3 µM (inactive),3 µM (inactive),7 µM (inactive),1.82 µM (inactive),1.98 µM (inactive)
Nc1ncc(CN2CCOCC2)c(-c2ccccc2O)n1,> 100 µM (inactive),> 100 µM (inactive),> 100 µM (inactive),> 100 µM (inactive),> 100 µM (inactive),> 100 µM (inactive),> 100 µM (inactive),> 100 µM (inactive),> 100 µM (inactive),> 100 µM (inactive),> 100 µM (inactive),> 100 µM (inactive),> 100 µM (inactive),> 100 µM (inactive),> 100 µM (inactive),> 100 µM (inactive),> 100 µM (inactive),> 100 µM (inactive),> 100 µM (inactive),> 100 µM (inactive)
CCCCN1C(=O)CC2[C@@H]3CCc4cc(OC(C)=O)ccc4C3CC[C@]2(C)C1=O (stereo not given in full),> 10 µM (inactive),> 10 µM (inactive),> 10 µM (inactive),> 10 µM (inactive),> 10 µM (inactive),> 10 µM (inactive),> 10 µM (inactive),> 10 µM (inactive),> 10 µM (inactive),> 10 µM (inactive),> 10 µM (inactive),> 10 µM (inactive),> 10 µM (inactive),> 10 µM (inactive),> 10 µM (inactive),> 10 µM (inactive),> 10 µM (inactive),> 10 µM (inactive),> 10 µM (inactive),> 10 µM (inactive)
CN(CCNC(=O)c1cn(C)c2c1ccc1cc(Cl)c(Cl)cc12)CCNC(=O)c1cn(C)c2c1ccc1cc(Cl)c(Cl)cc12,1.92 µM (inactive),1.42 µM (inactive),7.83 µM (inactive),2.03 µM (inactive),2.17 µM (inactive),2.26 µM (inactive),1.74 µM (inactive),2.61 µM (inactive),1.79 µM (inactive),2.75 µM (inactive),1.79 µM (inactive),1.82 µM (inactive),1.75 µM (inactive),1.94 µM (inactive),12.5 µM (inactive),1.95 µM (inactive),5.22 µM (inactive),1.75 µM (inactive),2.29 µM (inactive),1.84 µM (inactive)
Cc1nc2ccc(F)cc2c2c1CCN2c1ccc(Cl)cc1,13.7 µM (inactive),18 µM (inactive),10.7 µM (inactive),29 µM (inactive),27.6 µM (inactive),4.88 µM (inactive),11.8 µM (inactive),10.5 µM (inactive),13.1 µM (inactive),30.8 µM (inactive),9.71 µM (inactive),17.2 µM (inactive),3.61 µM (inactive),4.52 µM (inactive),3.56 µM (inactive),10.9 µM (inactive),5.15 µM (inactive),,4.25 µM (inactive),18.6 µM (inactive)
CC(=O)Oc1cc2c(c3ncccc13)OC(C)(C)C2,11.1 µM (inactive),12.4 µM (inactive),11 µM (inactive),27.2 µM (inactive),5.12 µM (inactive),2.95 µM (inactive),12.2 µM (inactive),12.1 µM (inactive),5.85 µM (inactive),10.8 µM (inactive),14.2 µM (inactive),12.9 µM (inactive),15.7 µM (inactive),13.4 µM (inactive),12.5 µM (inactive),> 100 µM (inactive),> 100 µM (inactive),13.4 µM (inactive),2.94 µM (inactive),17.6 µM (inactive)
CNC(=O)Nc1nc2cc([N+](=O)[O-])ccc2[nH]1,> 100 µM (inactive),> 100 µM (inactive),> 100 µM (inactive),> 100 µM (inactive),> 100 µM (inactive),> 100 µM (inactive),> 100 µM (inactive),> 100 µM (inactive),> 100 µM (inactive),> 100 µM (inactive),> 100 µM (inactive),> 100 µM (inactive),> 100 µM (inactive),> 100 µM (inactive),> 100 µM (inactive),,> 100 µM (inactive),> 100 µM (inactive),> 100 µM (inactive),21.5 µM (inactive)
CCC(C)C1NC(=O)C2CCCN2C(=O)C(CC2CO2)OC(=O)CCNC(=O)C(C)N(C)C(=O)C(C(C)C)N(C)C1=O (stereo not given),0.54 µM (active),0.0713 µM (active),0.0142 µM (active),> 100 µM (inactive),> 100 µM (inactive),> 47.8 µM (inactive),> 100 µM (inactive),0.199 µM (active),0.112 µM (active),,0.22 µM (active),0.197 µM (active),1.73 µM (inactive),< 0.0279 µM (active),< 0.0169 µM (active),0.0209 µM (active),,1.06 µM (active),0.181 µM (active),< 0.0158 µM (active)
COc1ccc(-c2cc(-c3ccco3)c(C#N)c(=S)n2C2OC(CO)C(O)C(O)C2O)cc1 (stereo not given),> 100 µM (inactive),> 100 µM (inactive),> 100 µM (inactive),1.57 µM (inactive),> 100 µM (inactive),> 100 µM (inactive),> 100 µM (inactive),> 100 µM (inactive),> 100 µM (inactive),> 100 µM (inactive),> 100 µM (inactive),> 100 µM (inactive),> 100 µM (inactive),> 100 µM (inactive),44.7 µM (inactive),,> 100 µM (inactive),> 100 µM (inactive),> 100 µM (inactive),> 100 µM (inactive)

# Source: ChEMBL document CHEMBL1201862, “PubChem BioAssay data set” (2004)
